Earlier results, collected in US20150182574A1, “COMPOSITIONS AND METHODS FOR ENHANCING MOBILIZATION AND PROLIFERATION OF BLASTOMERE-LIKE STEM CELLS” (Stemtech International, Inc., priority 2012, published 2015).

Key:
HSCs = settings: intravenous injection
[1] = temperature and pH dependent
VSELs = settings: in vivo

Molecule: Fucoidan
- egress of HSCs from bone marrow into the peripheral blood stream (HSCs): promote the egress of HSCs

Molecule: OC[C@H]1O[C@@H](Oc2c(O)cc(O)cc2C=Cc2ccc(O)cc2)[C@H](O)[C@@H](O)[C@@H]1O [2,3,5,4′-tetrahydroxystilbene-2-O-β-d-glycoside]
- stability in aqueous solutions [1]: readily degrade in aqueous solutions

B1: G-CSF: granulocyte colony-stimulating factor, mobilization agent (protein, UniProt P09919 31-207, looked up)
Granulocyte …: TPLGPASSLPQSFLLKCLEQVRKIQGDGAALQEKLVSECATYKLCHPEELVLLGHSLGIPWAPLSSCPSQALQLAGCLSQLHSGLFLYQGLLQALEGISPELGPTLDTLQLDVADFATTIWQQMEELGMAPALQPTQGAMPAFASAFQRRAGGVLVASHLQSFLEVSYRVLRHLAQP
- numbers of VSELs in peripheral blood (VSELs): increase numbers of VSELs in peripheral blood
